Columns and labels:
[1] = system: human embryonic stem cells (CHA6 cell line); experiment: Evaluation of stemness of stem cells cultured in MEF medium (differentiation-inducing) containing PKC inhibitor; format: cell-based; conditions: 5 to 7 days
Protocol: (§1) Colony clumps (5 colony clumps) of human embryonic stem cells (CHA6 cell line, CHA Medical University, Korea) were seeded to each wells of a 96-well plate coated with Matrigel (BD Biosciences, USA). A differentiation-inducing medium, i.e., MEF medium [Dulbecco's Modified Eagle Medium (DMEM) containing high glucose (WeIGENE, Korea) supplemented with 10% (v/v) FBS (WeIGENE, Korea), 1% (v/v) Penicillin/streptomycin (Caisson), 1% (v/v) NEAA (GIBCO), 0.1 mM beta-mercaptoethanol (GIBCO)], was added to the each wells, which were then cultured at about 37° C., in about 5.0% CO2 incubator. The culture was performed for 5 to 7 days, while replacing the medium with a new medium containing 5 uM of 3-[1-[3-(dimethylamino)propyl]-5-methoxy-1H-indol-3-yl]-4-(1H-indol-3-yl)-1H-pyrrole-2,5-dione)(Gö6983, Calbiochem) as a PKC inhibitor, everyday.
As a control, human embryonic stem cells were cultured in the MEF medium without the PKC inhibitor. And also, human embryonic stem cells were cultured in a differentiation-inhibiting medium, i.e., mTeSR-1 medium containing bFGF, TGF-beta, LiCl, GABA, and pipecolic acid (StemCell Technologies, USA). […]

[2] = system: human embryonic stem cells (CHA6 cell line); experiment: Evaluation of stemness of stem cells cultured in non-conditioned medium containing PKC inhibitor; format: cell-based
Protocol: as §1, with “The culture was performed for 5 to 7 days, while replacing the medium with a new medium containing 5 uM of 3-[1-[3-(dimethylamino)propyl]-5-methoxy-1H-indol-3-yl]-4-(1H-indol-3-yl)-1H-pyrrole-2,5-dione)(Gö6983, Calbiochem) as a PKC inhibitor, everyday.” left out
Evaluations of stemness were also performed in accordance with the same procedures as in the above (1), using a non-conditioned medium [DMEM/F-12 high-glucose (GIBCO) supplemented with 20% (v/v) knockout serum replacement (GIBCO), 1% (v/v) Penicillin/streptomycin (Caisson), 1% (v/v) NEAA(GIBCO), and 0.1 mM beta-mercaptoethanol (GIBCO)], instead of the MEF medium. In addition, expression levels of Oct4 (Octamer Binding Transcription Factor-4), which is another un-differentiated cell marker, were also evaluated through immunostaining with antibody against Oct4.

[3] = system: human embryonic stem cells (CHA6 cell line); experiment: Evaluation of differentiation of stem cells cultured in mTeSR-1 medium containing PKC activator; format: cell-based
Protocol: Colony clumps (5 colony clumps) of human embryonic stem cells (CHA6 cell line, CHA Medical University, Korea) were seeded to each wells of a 96-well plate coated with Matrigel (BD Biosciences, USA). A undifferentiation-maintaining medium, i.e., mTeSR-1 medium containing bFGF, TGF-beta, LiCl, GABA, and pipecolic acid (StemCell Technologies, USA), was added to the each wells, which were then cultured at about 37° C., in about 5.0% CO2 incubator. The culture was performed for 5 to 7 days, while replacing the medium with a new medium containing 10 nM of 12-O-tetradecanoylphorbol-13-acetate (TPA) as a PKC activator, everyday. As a control, human embryonic stem cells were cultured in the mTeSR-1 medium without the PKC activator. And also, human embryonic stem cells were cultured in the mTeSR-1 medium treated with both 10 nM of TPA and 5 uM of Go6983.
The cells cultured in the mTeSR-1 medium formed colony shapes, which were conglomerating each other, without differentiation (a in FIG. 3).
As a result of alkaline phosphatase staining, the staining level and colony shape of the cells cultured in the mTeSR-1 medium were similar to those of undifferentiated stem cells (d in FIG. 3).

[4] = system: human embryonic stem cells (CHA6 cell line); experiment: Evaluation of differentiation of stem cells in other undifferentiation-maintaining mediums containing PKC activator; format: cell-based; conditions: FIG. 4
Protocol: Colony clumps (5 colony clumps) of human embryonic stem cells (CHA6 cell line, CHA Medical University, Korea) were seeded to each wells of a 96-well plate coated with Matrigel (BD Biosciences, USA). […] The culture was performed for 5 to 7 days, while replacing the medium with a new medium containing 10 nM of 12-O-tetradecanoylphorbol-13-acetate (TPA) as a PKC activator, everyday. […]
Evaluations of differentiation were also performed in accordance with the same procedures as in the above (1), using other undifferentiation-maintaining mediums, [i.e., Matrigel (extracellular matrix)/MEF-conditioned medium (Home made; Serum-free media [80% (v/v) DMEM/F12 (GIBCO), 20% (v/v) Knockout serum replacement (GIBCO), 1% (v/v) MEM non-essential amino acids (GIBCO), 0.1 mM β-mercaptoethanol (GIBCO), 1% (v/v) Pennicillin/streptomycin (Caisson)] was conditioned by γ-irradiated CF-1 mouse embryonic fibroblasts (MEF) at 37° C. for 24 hours) and CELLstart (extracellular matrix) (Invitrogen)/and STEMPRO (Invitrogen)], […] In addition, differentiation of other hESC, i.e., H9 hESC line (WiCell, Wis., USA) was also evaluated in the Matrigel (extracellular matrix)/MEF-conditioned medium with a PKC activator.

[5] = system: H9 hESC line; experiment: Evaluation of differentiation of H9 hESC line in Matrigel/MEF-conditioned medium with PKC activator; format: cell-based, human; conditions: FIG. 4

Row | SMILES | shape, existence and distribution of the cells (optical microscope, nucleus-staining with DAPI) ([1]; 5 uM PKC inhibitor replaced everyday, Matrigel-coated, FIG. 1 a-f) | alkaline phosphatase expression level (un-differentiated cell marker, staining) ([1]; 5 uM PKC inhibitor, FIG. 1 g-i) | alkaline phosphatase expression level ([2]; NCM containing Gö6983, FIG. 2A f) | Oct4 expression level (immunostaining) ([2]; NCM containing Gö6983, FIG. 2B c) | cell shape under co-treatment with PKC activator (inhibition of TPA-induced differentiation) ([3]; mTeSR-1 medium treated with both 10 nM TPA and 5 uM Gö6983, FIG. 3 c and f) | differentiation, shape and distribution of the cells (optical microscope) ([3]; mTeSR-1 medium, 10 nM TPA replaced everyday, 5 to 7 days, FIG. 3 b) | alkaline phosphatase staining level ([3]; mTeSR-1 medium, 10 nM TPA, FIG. 3 e) | induction of differentiation of hESCs ([4]; CELLstart/STEMPRO medium with PKC activator) | induction of differentiation of hESCs ([4]; Matrigel/MEF-conditioned medium with PKC activator) | induction of differentiation of hESCs [5]
1 | COc1ccc2c(c1)c(C1=C(c3c[nH]c4ccccc34)C(=O)NC1=O)cn2CCCN(C)C [Gö6983, 3-[1-[3-(dimethylamino)propyl]-5-methoxy-1H-indol-3-yl]-4-(1H-indol-3-yl)-1H-pyrrole-2,5-dione] | maintained colony shapes, which were conglomerating each other | significant increase in alkaline phosphatase expression level | significant increases | significant increases | shapes similar to undifferentiated stem cells | – | – | – | – | –
2 | CCCCCCCCCCCCCC(=O)O[C@@H]1[C@@H](C)[C@@]2(O)[C@@H](C=C(CO)C[C@]3(O)C(=O)C(C)=C[C@@H]23)[C@@H]2C(C)(C)[C@]12OC(C)=O [TPA, 12-O-tetradecanoylphorbol-13-acetate] | – | – | – | – | – | differentiated and broadly distributed | very low alkaline phosphatase staining level | induced differentiation of hESCs | induced differentiation of hESCs | induction of differentiation by the PKC activator was also observed

From patent US20120238019A1, “STEM CELL CULTURE MEDIA FOR MAINTAINING STEMNESS OR INDUCING DIFFERENTIATION OF STEM CELLS” (COLLEGE OF MEDICINE POCHON CHA UNIVERSITY INDUSTRY-ACADEMIC …, priority 2011, published 2012)
